The text below walks through data of publication PMC3724348 (Biochemistry, 2013).

“Also recorded” adds a separate entry of the source. Bounds are passed on as bounds.

The test system of series [1] is PPARγ target gene ANGPTL4 in LNCaP cells. Description: Semi-quantitative real time PCR, PPARγ target gene in LNCaP cells. It counts as cell-based, human. The settings on record: 18 h. For orientation: In qPCR the cycle at which signal appears reflects the starting amount.
For series [2], the system named is HL-60 cells. Description: HL60 differentiation assay. It counts as cell-based, human. The note with it: 4 days, 1,25(OH)2D3 alone.
The subject of series [3] is VDR target genes IGFBP-3, TRPV6 and CYP24A1 in LNCaP cells. In words: Semi-quantitative real time PCR, VDR target genes in LNCaP cells. It counts as cell-based, human.
Series [4] concerns TR target gene BTG2 in LNCaP cells. In words: Semi-quantitative real time PCR, TR target gene in LNCaP cells. It counts as cell-based, human. The settings on record: 18 h.
Series [5] has as its system HL-60 cells. Description: HL-60 cell death in differentiation assay. It counts as cell-based, human. The note with it: 4 days.
A further series has as its system retinoid X receptor. The note with it: HTS campaign; ref AID:588546, pubchem; cited from earlier work.
The next series has as its system HEK293T cells. In words: Toxicity in HEK293T cells. The settings on record: at a concentration of 45.8 µM; AID:602204.
A further series deals with glucocorticoid receptor. The settings on record: HTS campaign; ref AID:588533, pubchem; cited from earlier work.
Another series concerns the target VDR–SRC2 interaction (Homo sapiens, UniProt P11473, DEL165-215). In words: Western pull-down assay VDR-LBD and SRC2 bearing all three NIDs. It counts as binding.
Series [6] has as its target VDR-SRC2–3 Alexa Fluor 647 interaction (Homo sapiens, UniProt P11473, DEL165-215). Description: VDR–SRC2–3 FP assay in the presence of 1 mM or 100 mM 2-mercaptoethanol. The series is classed as binding. The note with it: small molecules 50 µM; Alexa Fluor 647 SRC2–3.
The test system of series [7] is AR target genes UGT1A1 and PSA in LNCaP cells. Description: Semi-quantitative real time PCR, AR target genes in LNCaP cells. It counts as cell-based, human. The note with it: 18 h.
Series [8] concerns PPARγ. The note with it: HTS campaign; ref AID588537, pubchem; cited from earlier work.
For a further series, the system named is SRC2. Description: Isothermal titration calorimetry GW0742–SRC2. It counts as binding. Background: Isothermal titration calorimetry measures the heat released or taken up as one component is titrated into another.
The subject of the next series is TRβ. The settings on record: HTS campaign; ref AID:588547, pubchem; cited from earlier work.
The target in series [9] is interaction between VDR and SRC2–3 (Homo sapiens, UniProt P11473, DEL165-215). In words: HTS FP assay, VDR–SRC2–3 inhibition. It counts as binding. The note with it: HTS campaign; Texas Red-labeled SRC2–3.
A further series is described as follows: Cell viability. The settings on record: human. The series is classed as cell-based, human.
A further series concerns HEK 293T cells. Description: Cell viability. The settings on record: GW0742 18.7 µM; CellTiter-Glo. It counts as cell-based, human.
Another series has as its system estrogen receptor α. The settings on record: HTS campaign; ref AID:588513, pubchem; cited from earlier work.
The target of a further series is T1, PPARγ–DRIP2 interaction (Homo sapiens, UniProt P37231).
T1 sequence (P37231 238-503 limits assumed): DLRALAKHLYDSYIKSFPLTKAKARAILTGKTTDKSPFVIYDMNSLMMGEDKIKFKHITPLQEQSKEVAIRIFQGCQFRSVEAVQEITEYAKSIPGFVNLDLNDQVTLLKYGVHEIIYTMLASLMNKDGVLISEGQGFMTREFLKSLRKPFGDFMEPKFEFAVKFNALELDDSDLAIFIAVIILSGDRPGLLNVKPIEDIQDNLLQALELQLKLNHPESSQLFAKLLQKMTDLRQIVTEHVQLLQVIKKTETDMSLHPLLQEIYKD
Description: FP assay PPARγ–DRIP2. The series is classed as binding.

The target of a further series is VDR (Homo sapiens, UniProt P11473). In words: VDR ligand competition FP assay. It counts as binding. The note with it: with respect to 100% free probe (55 mP) measured in the absence of VDR.
For series [10], the system named is ANGPTL4 in HT29 colon cancer cells. The note with it: GW0742 1 µM; cited from earlier work.
For series [11], the target named is PPARγ (Homo sapiens, UniProt P37231). In words: One-hybrid luciferase transcription assay in HEK 293T cells. It counts as cell-based.
In another series the target is TRβ–SRC2–2 interaction (Homo sapiens, UniProt P10828). In words: FP assay TRβ–SRC2–2 inhibition. It counts as binding.
TRβ–SRC2–2 interaction, sequence (P10828 217-461 limits assumed): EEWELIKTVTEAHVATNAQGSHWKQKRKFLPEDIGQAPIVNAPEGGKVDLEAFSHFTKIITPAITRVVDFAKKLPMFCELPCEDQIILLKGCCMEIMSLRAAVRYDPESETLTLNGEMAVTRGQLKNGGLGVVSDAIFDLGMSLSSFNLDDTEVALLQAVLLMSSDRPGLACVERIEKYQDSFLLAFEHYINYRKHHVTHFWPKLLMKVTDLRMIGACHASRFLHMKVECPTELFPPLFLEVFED
[12] abbreviates: GW0742 20 µM + 1,25(OH)2D3 10 nM, 18 h.

Regarding `CN(CCOc1ccc(CC2SC(=O)NC2=O)cc1)c1ccccn1` (centres unmarked) [Rosiglitazone], in series [1] (rosiglitazone 5 µM), the ANGPTL4 expression entry is reported as “induced”.

For the compound `C=C1/C(=C\C=C2/CCC[C@]3(C)[C@@H]([C@H](C)CCCC(C)(C)O)CC[C@@H]23)C[C@@H](O)C[C@@H]1O` [1,25(OH)2D3, 1,25-dihydroxyvitamin D3], in the series with HL-60 cells [2], the HL-60 cell differentiation entry is reported as “strong”. Also, in [3] (1,25(OH)2D3 10 nM, 6 hours and 18 hours), the CYP24A1 expression entry is listed as “induction; also recorded: moderately upregulated”. Also, in [3] (1,25(OH)2D3 10 nM, 18 h), the IGFBP-3 expression entry is “strongly induced” and the TRPV6 expression result was “strongly induced”.

With `N[C@@H](Cc1cc(I)c(Oc2ccc(O)c(I)c2)c(I)c1)C(=O)O` [T3, triiodothyronine], the BTG2 expression result in [4] (T3 10 nM) is listed as “down-regulated”.

For `Cc1cc(SCc2sc(-c3ccc(C(F)(F)F)c(F)c3)nc2C)ccc1OCC(=O)O` [GW0742], the “concentration with significant HL-60 cell death” value in the series with HL-60 cells [5] turned out to be 150 µM. The “effect on rosiglitazone-induced ANGPTL4 expression” value in series [1] (GW0742 20 µM + rosiglitazone 5 µM) was “unaffected; also recorded: inconclusive”. For the same compound, in the series with retinoid X receptor, the “antagonistic activity RxR” value is reported as “Antagonistic activity”. Also, the cell death in the series on HEK293T cells was 18%. The “effect on T3-mediated down-regulation of BTG2” value in series [4] (GW0742 20 µM + T3 10 nM) is recorded as “reversed”. Also, the “antagonistic activity GR” value in the series on glucocorticoid receptor is “Antagonistic activity”. Besides, the “inhibition of the VDR–SRC2 interaction (pull-down)” value at VDR–SRC2 interaction (in the presence of VDR ligand) is recorded as “blocked in a dose dependent manner”. The “concentration with significant inhibition of the VDR–SRC2 interaction” value at VDR–SRC2 interaction (residual bands still detected) fell in the range of 80 to 120 µM. For the same compound, in series [3] (setting [12]), the “effect on 1,25(OH)2D3-induced IGFBP-3 expression” value is given as “selectively inhibited” and the “effect on 1,25(OH)2D3-induced TRPV6 expression” value is recorded as “selectively inhibited”. Besides, the “effect on 1,25(OH)2D3-induced CYP24A1 expression” value in [3] (only at 6 hours and 50 µM GW0742 + 1,25(OH)2D3 10 nM) is “significant inhibition”. The “inhibition of VDR–SRC2–3 interaction at 100 mM ME in comparison with 1 mM ME” value in [6] was “not influenced”. For the same compound, in series [7] (GW0742 20 µM + DHT 10 nM), the “effect on DHT-induced PSA expression” value is “significant inhibitory effect” and the “effect on DHT-induced UGT1A1 expression” value is “significant inhibitory effect”. Further, the “antagonistic activity PPARγ” value in the series with PPARγ [8] was “Antagonistic activity”. In the series on SRC2, the “interaction between GW0742 and SRC2 (ITC)” value is “no specific interaction was observed”. Further, the “antagonistic activity TRβ” value with TRβ is recorded as “Antagonistic activity”. For the same compound, the “VDR–SRC2–3 inhibition (FP assay) IC50” value in [9] is “inconclusive”. For the same compound, the viability – broadly, the share of living cells, or the viability signal relative to a control – at 16 h, 37.5 µM in the series “Cell viability” came to 93 ± 3%. Also, the toxicity result in the series with HEK 293T cells was “no toxicity was observed”. In addition, the “antagonistic activity ERα” value with estrogen receptor α is “Antagonistic activity”. Further, at PPARγ–DRIP2 interaction, the EC50 (as a rule, the concentration needed to bring the measured effect to its halfway point) stood at 2.6 µM and the 50% inhibitory concentration (IC50) (commonly the midpoint of a concentration-inhibition curve) is greater than 86 µM. On PPARγ–DRIP2 interaction (FP assay), the “concentration with significant inhibition between PPARγ-LBD and DRIP2” value is on record as greater than 86 µM. In addition, on VDR, the “extent of inhibition of VDR–ligand binding” value is given as “partial inhibition”. The ANGPTL4 activation result in series [10] is given as “activation”. For the same compound, on PPARγ [11], the “concentration with significant PPARγ-mediated transcriptional inhibition” value was greater than 20 µM. The compound further returned an IC50 at TRβ–SRC2–2 interaction of 59.9 ± 9.5 µM.

Take `C[C@]12CCC(=O)C[C@@H]1CC[C@@H]1[C@@H]2CC[C@]2(C)[C@@H](O)CC[C@@H]12` [DHT, dihydrotestosterone]: the UGT1A1 expression result in series [7] (DHT 10 nM) is given as “upregulated”.
